Test: Dynamic vapor sorption (DVS) moisture sorption isotherm
Type: physicochemical
Settings: relative humidity (RH) of 90%, sorption cycle 1
Description: DVS isotherms were generated on a Surface Measurement Systems Dynamic Vapor Sorption Advantage moisture sorption analyzer. Water adsorption and desorption were studied as a function of relative humidity over the range of 0 to 90% RH using 10% RH steps with a fixed equilibration time of 60 minutes per step.

Compound | change in mass as measured by dynamic vapor sorption (DVS)
CC(C)OC(=O)[C@H](C)N[P@](=O)(OC[C@H]1O[C@@H](n2ccc(=O)[nH]c2=O)[C@](C)(F)[C@@H]1O)Oc1ccccc1 [Compound I, Form 7, (S)-isopropyl 2-((S)-(((2R,3R,4R,5R)-5-(2,4-dioxo-3,4-dihydropyrimidin-1(2H)-yl)-4-fluoro-3-hydroxy-4-methyltetrahydrofuran-2-yl)methoxy)(phenoxy)phosphorylamino) propanoate] | about 0.15%
CC(C)OC(=O)[C@H](C)N[P@](=O)(OC[C@H]1O[C@@H](n2ccc(=O)[nH]c2=O)[C@](C)(F)[C@@H]1O)Oc1ccccc1 [Compound I, Form 8, (S)-isopropyl 2-(((S)-(((2R,3R,4R,5R)-5-(2,4-dioxo-3,4-dihydropyrimidin-1(2H)-yl)-4-fluoro-3-hydroxy-4-methyltetrahydrofuran-2-yl)methoxy)(phenoxy)phosphoryl)amino) propanoate] | about 0.17%

Source: patent publication US9340568B2, “Solid forms of an antiviral compound” (Gilead Pharmasset LLC, priority 2013, dated 2016)
